From patent publication US7786141B2 (Vertex Pharmaceuticals Incorporated, priority 2004, dated 2010)

Tests used:
M1 muscarinic receptor = biological target: T1, M1 muscarinic receptor (Homo sapiens, UniProt P11229); test: Functional mobilization of intracellular calcium (FLIPR) in M1-CHO cells; assay type: cell-based; conditions: Table 4; for Emax: 100% efficacy is the maximum response obtained with the Carbachol control
T1 construct: expressed in transfected cells; host or cells: CHO (M1-CHO)
T1 sequence (P11229 1-460): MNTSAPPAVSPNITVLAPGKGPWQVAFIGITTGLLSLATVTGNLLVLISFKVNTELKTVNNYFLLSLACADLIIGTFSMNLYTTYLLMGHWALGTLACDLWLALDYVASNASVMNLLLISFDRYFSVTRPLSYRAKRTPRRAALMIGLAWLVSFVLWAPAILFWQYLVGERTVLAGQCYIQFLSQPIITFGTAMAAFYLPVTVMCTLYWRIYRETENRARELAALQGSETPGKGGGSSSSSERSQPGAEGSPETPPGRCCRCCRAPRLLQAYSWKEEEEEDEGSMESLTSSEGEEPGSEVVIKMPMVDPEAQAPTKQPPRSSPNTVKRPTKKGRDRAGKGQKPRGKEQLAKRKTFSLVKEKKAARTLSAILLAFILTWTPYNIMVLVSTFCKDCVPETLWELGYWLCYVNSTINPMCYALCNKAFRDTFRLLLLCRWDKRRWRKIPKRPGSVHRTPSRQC
Summary of the method: (§1)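 FLIPR Ca2+ read, ex 488/em 540 nm, 60 s. Recombinant CHO lines (M1 or M4), dye-loaded Fluo-3 AM 60-90 min at 37° C, probenecid 1 mM, pH 7.4. Agonist: compound alone; inhibition: 15 min compound pre-incubation, then carbachol at EC80 for that subtype.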

M4 muscarinic receptor = biological target: T2, M4 muscarinic receptor (Homo sapiens, UniProt P08173); test: Functional mobilization of intracellular calcium (FLIPR) in M4-CHO cells; assay type: cell-based; conditions: Table 4; for Emax: 100% efficacy is the maximum response obtained with the Carbachol control
T2 construct: expressed in transfected cells; host or cells: CHO (M4-CHO)
T2 sequence (P08173 1-479): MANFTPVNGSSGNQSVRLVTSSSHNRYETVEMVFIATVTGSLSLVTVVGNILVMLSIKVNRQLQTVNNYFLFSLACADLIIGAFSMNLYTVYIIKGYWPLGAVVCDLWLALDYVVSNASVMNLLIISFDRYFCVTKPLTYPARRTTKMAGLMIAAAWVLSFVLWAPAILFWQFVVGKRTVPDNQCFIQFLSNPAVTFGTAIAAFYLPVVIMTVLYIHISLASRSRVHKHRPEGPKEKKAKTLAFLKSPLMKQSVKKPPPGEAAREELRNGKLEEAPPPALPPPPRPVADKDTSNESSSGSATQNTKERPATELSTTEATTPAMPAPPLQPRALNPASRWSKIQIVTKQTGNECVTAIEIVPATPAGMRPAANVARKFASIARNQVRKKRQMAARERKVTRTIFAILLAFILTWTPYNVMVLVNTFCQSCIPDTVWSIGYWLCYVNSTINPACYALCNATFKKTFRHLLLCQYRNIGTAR
Summary of the method: as §1

[1] = M1 receptor, calcium mobilization (FLIPR)
[2] = M4 receptor, calcium mobilization (FLIPR)

| Compound | Emax (M1 muscarinic receptor) [%] | M1 Activity (M1 muscarinic receptor; modulating M1 receptor) | Emax (M4 muscarinic receptor) [%] | M4 Activity (M4 muscarinic receptor; modulating M4 receptor) | M1 Activity (M1 muscarinic receptor; [1]) | M4 Activity (M4 muscarinic receptor; [2]) |
| --- | --- | --- | --- | --- | --- | --- |
| CC(=O)N[C@H]1CC2(CCN(CC(=O)N3CCCCC3)CC2)c2ccccc21 [compound 792] | 25 to 100 | x (activity was measured to be greater than 5.0 μM) | 25 to 100 | x (activity was measured to be greater than 5.0 μM) |  |  |
| CCC#CCOC(=O)N1CC[C@@H](CN2CCC3(CC2)CN(C(C)=O)c2cccc(C)c23)C1 [compound 793] | 25 to 100 | xxx (activity was measured to be less than 2.0 μM) | 25 to 100 | xxx (activity was measured to be less than 2.0 μM) |  |  |
| CC(=O)N1CC2(CCN(C3CCN(c4ncc(C)s4)CC3)CC2)c2ccccc21 [compound 794] | < 25 | x (activity was measured to be greater than 5.0 μM) | < 25 | x (activity was measured to be greater than 5.0 μM) |  |  |
| CN(C)C(=O)N1CC2(CCN(C3CCN(C(=O)c4cccnc4)CC3)CC2)c2cc(F)ccc21 [compound 795] | < 25 | xx (activity was measured to be between 2.0 μM and 5.0 μM) | < 25 | x (activity was measured to be greater than 5.0 μM) |  |  |
| CC(=O)CN1CC2(CCN(C3CCCCC3)CC2)c2cc(F)ccc21 [compound 796] | 25 to 100 | xxx (activity was measured to be less than 2.0 μM) | 25 to 100 | xxx (activity was measured to be less than 2.0 μM) |  |  |
| CCCC(=O)N[C@H]1CC2(CCN(CC3CCCCC3)CC2)c2ccccc21 [compound 797] | 25 to 100 | x (activity was measured to be greater than 5.0 μM) | 25 to 100 | xxx (activity was measured to be less than 2.0 μM) |  |  |
| O=C(N[C@H]1CC2(CCN(CCC3CC4CC[C@@H]3C4)CC2)c2ccccc21)c1ccoc1 (some centres unmarked) [compound 798] | < 25 | x (activity was measured to be greater than 5.0 μM) | < 25 | x (activity was measured to be greater than 5.0 μM) |  |  |
| CCOC(=O)N1CCC(N2CCC3(CC2)CN(C(C)=O)c2c(-c4ccccc4OC)cccc23)CC1 [compound 799] | < 25 | x (activity was measured to be greater than 5.0 μM) | < 25 | x (activity was measured to be greater than 5.0 μM) |  |  |
| CCOC(=O)N1CCC(N2CCC3(CC2)CN(CC(=O)N(C)C)c2ccc(F)cc23)CC1 [compound 800] | 25 to 100 | xxx (activity was measured to be less than 2.0 μM) | 25 to 100 | xxx (activity was measured to be less than 2.0 μM) |  |  |
| O=C(N[C@H]1CC2(CCN(C3CCCCC3)CC2)c2ccccc21)c1ccoc1 [compound 801] | < 25 | x (activity was measured to be greater than 5.0 μM) | < 25 | x (activity was measured to be greater than 5.0 μM) |  |  |
| c1ccc2c(c1)CCCC21CCN(CC2CCCCC2)CC1 [compound 802] | 25 to 100 |  | 25 to 100 |  |  |  |
| O=C(O)C1CC2(CCN(CC3CCCCC3)CC2)c2ccccc21 (centres unmarked) [compound 803] | < 25 |  | < 25 |  | x (activity was measured to be greater than 5.0 μM) | x (activity was measured to be greater than 5.0 μM) |
| Cc1cc(C(=O)N2CCC(N3CCC4(CC3)CN(C(=O)N(C)C)c3ccc(F)cc34)CC2)no1 [compound 804] | < 25 |  | < 25 |  | x (activity was measured to be greater than 5.0 μM) | x (activity was measured to be greater than 5.0 μM) |
| CC(CF)OC(=O)N1CC[C@@H](CN2CCC3(CC2)CN(C(=O)N(C)C)c2ccc(F)cc23)C1 (some centres unmarked) [compound 805] | 25 to 100 |  | 25 to 100 |  | xxx (activity was measured to be less than 2.0 μM) | xxx (activity was measured to be less than 2.0 μM) |
| CC(=O)N[C@H]1CC2(CCN(CC(=O)N(C)C3CCN(C)CC3)CC2)c2ccccc21 [compound 806] | < 25 |  | < 25 |  | x (activity was measured to be greater than 5.0 μM) | x (activity was measured to be greater than 5.0 μM) |
| COC(=O)N1CC[C@H](CN2CCC3(CC2)CN(C(=O)N(C)C)c2ccc(F)cc23)C1 [compound 807] | 25 to 100 |  | 25 to 100 |  | xxx (activity was measured to be less than 2.0 μM) | xxx (activity was measured to be less than 2.0 μM) |
| CCOC(=O)N1CCC(N2CCC3(CC2)CN(c2ccc(F)cc2)c2ccc(F)cc23)CC1 [compound 808] | 25 to 100 |  | 25 to 100 |  | xxx (activity was measured to be less than 2.0 μM) | xxx (activity was measured to be less than 2.0 μM) |
| CCOC(=O)N1C2CCC1CC(N1CCC3(CC[C@H](NS(C)(=O)=O)c4ccccc43)CC1)C2 (some centres unmarked) [compound 809] | 25 to 100 |  | 25 to 100 |  | xxx (activity was measured to be less than 2.0 μM) | xxx (activity was measured to be less than 2.0 μM) |
| CCOC(=O)N1C2CCC1CC(N1CCC3(CC[C@H](NC(C)=O)c4ccccc43)CC1)C2 (some centres unmarked) [compound 810] | 25 to 100 |  | 25 to 100 |  | xxx (activity was measured to be less than 2.0 μM) | xxx (activity was measured to be less than 2.0 μM) |
| CN(C)C(=O)N1CC2(CCN(C3CCN(C(=O)c4ccsc4)CC3)CC2)c2cc(F)ccc21 [compound 812] | 25 to 100 |  | < 25 |  | xx (activity was measured to be between 2.0 μM and 5.0 μM) | x (activity was measured to be greater than 5.0 μM) |
| Cc1ccc2c(c1)C1(CCN(C3CC4CCC3C4)CC1)CN2C(=O)c1ccccn1 (centres unmarked) [compound 813] | 25 to 100 |  | < 25 |  | x (activity was measured to be greater than 5.0 μM) | x (activity was measured to be greater than 5.0 μM) |
| COc1ccc(F)cc1N1CCC(N2CCC3(CC2)CN(C(=O)N(C)C)c2ccc(F)cc23)CC1 [compound 814] | 25 to 100 |  | 25 to 100 |  | x (activity was measured to be greater than 5.0 μM) | xx (activity was measured to be between 2.0 μM and 5.0 μM) |
| CN(C)C(=O)CN1CC2(CCN(C[C@@H]3C[C@H]4C=CC3C4)CC2)c2cc(F)ccc21 [compound 815] | 25 to 100 |  | 25 to 100 |  | xx (activity was measured to be between 2.0 μM and 5.0 μM) | xxx (activity was measured to be less than 2.0 μM) |
| C#CCOC(=O)N1CC[C@@H](CN2CCC3(CC2)CN(C(C)=O)c2ccccc23)C1 [compound 816] | > 100 |  | > 100 |  | xxx (activity was measured to be less than 2.0 μM) | xxx (activity was measured to be less than 2.0 μM) |
| CC1=C(CCN2CCC3(CC2)C[C@H](NC(=O)c2ccoc2)c2ccccc23)C(C)(C)CCC1 [compound 817] | < 25 |  | < 25 |  | x (activity was measured to be greater than 5.0 μM) | x (activity was measured to be greater than 5.0 μM) |
